Our source for the AC35 values is PubChem BioAssay AID720587 (Broad Institute, 2013).

The assay has as its system A673 Ewing sarcoma viability, CellTiter-Glo ATP luminescence, 72 h. As to the kind of experiment: A673 Ewing sarcoma viability loss – cell-based, CellTiter-Glo luminescence, cherry-pick retest, confirmation (AID 720587). For orientation: Cellular ATP, detected with luciferase, serves as a proxy for viable cell number.

Take `COc1cc2oc3cc(C#Cc4ccc(N)cc4)ccc3c(=O)c2cc1OC`: the AC35 was 17.4 µM.
Consider `COc1ccc(OC)c(-c2nnc3n2N=C(c2ccc(OC)c(OC4CCOC4)c2)CS3)c1` (centres undefined), for which the AC35 was 3.24 µM.
Then `O=c1[nH]c(/C=C2\C=Nc3ccccc32)c(O)n1Cc1ccccc1F`, with 3.16 µM; and `COc1ccccc1NC(=O)N1CCCCN2[C@H](CO)[C@H](c3ccc(-c4cccc(C)c4)cc3)[C@H]2C1`, with 9.29 µM; and `COC1C(O)C(C)OC(OC2CCC3(C)C(CCC4C3C(O)CC3(C)C(C5=CC(=O)OC5)CCC43O)C2)C1O` (centres undefined), with 0.228 µM.
`Cc1cccc(CN2C(=O)/C(=C\c3ccc(C(=O)NCCCN4CCN(C)CC4)cc3)Oc3ccccc32)c1`: the AC35 was 12.3 µM.
As for `Cc1ccc(OCCNC(=O)c2cccc(S(=O)(=O)NCc3ccccc3)c2)cc1`, the AC35 was 4.65 µM.
Then `N#CC1=C(N)Oc2cc(N)ccc2C1c1cccc(Br)c1` (centres undefined), with 0.505 µM; and `Cc1ccc(/C=C2\SC(=S)N(CCCC(=O)NNC(=O)c3ccccc3O)C2=O)cc1`, with 11.3 µM.
Then `COC(=O)C(CC#Cc1ccc2c(c1)[C@]1(C(=O)N2)[C@H](c2ccc(OCCO)cc2)N2[C@H](c3ccccc3)[C@H](c3ccccc3)OC(=O)[C@H]2[C@@H]1C(=O)N1CCN(c2ncccn2)CC1)C(=O)OC`, with 7.81 µM; and `CCOc1ccc(N=C2C(=O)Nc3ccc(C)c(Br)c32)cc1`, with 20.7 µM.
With `COc1cc(/C=C/C(=O)/C=C(O)/C=C/c2ccc(O)c(OC)c2)ccc1O`, the AC35 was 2.13 µM.
The result for `CCOc1cc2[nH]c(=S)n(Cc3ccc(C(=O)NCCN(CC)CC)cc3)c(=O)c2cc1OCC` reads 12 µM; that for `COC(=O)C[C@@H]1CC[C@@H]2[C@H](COc3ccc(NC(=O)c4cc(C)on4)cc3C(=O)N2C)O1`, 14.5 µM; that for `CN=c1scc(-c2ccccc2F)n1/N=C/c1ccc[nH]1`, 10.1 µM.
The result for `CC(C)(C)c1ccc(Cn2c(=O)cnc3ccccc32)cc1` reads 12.5 µM.
Then `CCOc1cc2[nH]c(=S)n(Cc3ccc(C(=O)N4CCN(C)CC4)cc3)c(=O)c2cc1OCC`, with 19.9 µM; and `CC(C)N1C/C(=C/c2cccnc2)C(=O)/C(=C/c2cccnc2)C1`, with 10.5 µM.
Take `C[C@@H]1CN([C@@H](C)CO)C(=O)c2cc(NC(=O)Nc3ccccc3)ccc2O[C@@H]1CN(C)Cc1ccc(C(=O)Nc2ccccc2N)cc1`: the AC35 is 7.56 µM.
On to `CC1=NN(c2ccc(C)cc2)C(=O)/C1=C\C=C\c1ccccc1`, for which the AC35 was 7.95 µM.
With `CN(C[C@H]1N[C@@H](CO)[C@@H]1c1ccc(C2=CCCC2)cc1)C(=O)c1ccc(F)cc1`, the AC35 is 4.19 µM.
The result for `CN1C(=O)c2cc(NC(=O)c3ccc(Cl)cc3)ccc2OC[C@@H]2O[C@@H](CC(=O)NCc3cccc(F)c3)CC[C@H]21` reads 5.42 µM.
The result for `Cc1cccc(NC(=O)CN2CCN(C(=O)CNC(=O)c3ccc(-c4ccccc4)cc3)CC2)c1C` reads 12.8 µM; that for `COc1cccc(-c2cccc(-c3nc(C(=O)NCC(F)(F)F)cc4c3[C@H](CCO)N([S@@](=O)C(C)(C)C)C4)c2)c1`, 8.4 µM; that for `C[C@H]1CCCCO[C@H](CN(C)Cc2ccc(C(F)(F)F)cc2)[C@@H](C)CN([C@@H](C)CO)C(=O)c2cc(NC(=O)Nc3ccccc3)ccc2O1`, 12.6 µM.
Then `COc1ccc(S(=O)(=O)Nc2ccc3c(c2)C(=O)N([C@H](C)CO)C[C@@H](C)[C@@H](CN(C)Cc2ccc(C(=O)Nc4ccccc4N)cc2)O3)cc1`, with 12.5 µM; and `COC(=O)C[C@@H]1CC[C@@H]2[C@@H](COc3ccc(NC(=O)Nc4ccc(C#N)cc4)cc3C(=O)N2C)O1`, with 9.7 µM; and `COc1cccc(O)c1CN1CCC(C(=O)Nc2ccc(-c3cccc(C)c3)cc2)CC1`, with 11 µM.
Consider `Cc1ccc2c(=O)n3c(nc2c1)C(Cc1ccc(O)cc1)NC(=O)c1cc2ccccc2cc1-3` (centres undefined), for which the AC35 was 7.13 µM.
The result for `Cc1ccc(S(=O)(=O)N(C)C[C@@H]2Oc3cc(C#Cc4ccncc4)ccc3S(=O)(=O)N([C@@H](C)CO)C[C@H]2C)cc1` reads 21.1 µM.
Then `Cc1ccc(S(=O)(=O)Nc2ccc3c(c2)C(=O)N([C@@H](C)CO)C[C@@H](C)[C@H](CN(C)Cc2ccc(C(F)(F)F)cc2)OCCCC[C@H](C)O3)cc1`, with 12.1 µM; and `CCCCCCCCCCCCCCCCCCNc1ccn(C2OC(COP(=O)(O)OCC3OC(n4cc(F)c(=O)[nH]c4=O)CC3O)C(O)C2O)c(=O)n1` (centres undefined), with 0.137 µM.
In the case of `CC1(C)Oc2cc3oc(-c4cc(O)cc(O)c4)cc3cc2CC1O` (centres undefined), the AC35 was 21.7 µM.
With `CCCCNC(=O)C(c1ccc(OCC(=O)OC)c(C(=O)OC)c1)N(CCOC)C(=O)CCCCCN1C(=O)NC(c2ccc(-c3ccccc3)cc2)C(C(=O)OCc2ccccc2)=C1C` (centres undefined), the AC35 was 7.63 µM.
The result for `CCCN1C/C(=C/c2ccc3c(c2)OCO3)C(=O)/C(=C/c2ccc3c(c2)OCO3)C1` reads 3.77 µM; that for `O=C(N/N=C/c1cccs1)c1n[nH]c2c1CCCC2`, 17.7 µM; that for `COc1ccc(CN(C)c2ncnc3sccc23)c(OC)c1OC`, 15.3 µM.
Take `O=c1ccc2[n+]([O-])c3ccc(O)cc3oc-2c1`: the AC35 is 8.92 µM.
As for `C[C@H](CO)N1C[C@H](C)[C@H](CN(C)Cc2ccc(C(=O)Nc3ccccc3N)cc2)Oc2ccc(NS(=O)(=O)c3cccs3)cc2C1=O`, the AC35 was 14.5 µM.
For the compound `O=C1NC(=O)N(Cc2ccco2)C(=O)/C1=C/C=C/c1ccco1`, the AC35 is 5.61 µM.
Turning to `C[C@H](CO)N1C[C@H](C)[C@@H](CN(C)Cc2ccc(Oc3ccccc3)cc2)Oc2ccc(NS(=O)(=O)c3ccc(Cl)cc3)cc2CC1=O`, the AC35 is 16.2 µM.
The result for `C[C@@H]1CN([C@H](C)CO)C(=O)c2cc(NC(=O)Nc3ccccc3)ccc2O[C@@H]1CN(C)Cc1ccc(C(=O)Nc2ccccc2N)cc1` reads 9.7 µM; that for `C[C@H](CO)N1C[C@H](C)[C@H](CN(C)Cc2ccccc2)Oc2ccc(NC(=O)CCCCCC(=O)Nc3ccccc3N)cc2CC1=O`, 15.7 µM.
For the compound `Cc1cc(C)cc(C(=O)NC(=S)Nc2ccc(Cc3ccncc3)cc2)c1`, the AC35 was 14.2 µM.
With `Cc1ccc2nc(-c3ccccc3)nn2c1`, the AC35 is 13.8 µM.
The result for `C[C@@H]1CN([C@@H](C)CO)C(=O)Cc2cc(NC(=O)Nc3ccc(C(F)(F)F)cc3)ccc2O[C@@H]1CN(C)Cc1ccc(C(=O)Nc2ccccc2N)cc1` reads 10.9 µM.
The result for `CCCCCCCN(c1ccccc1)[C@@H]1C[C@H]2CCCC(=O)N3CC[C@@H](C1)[C@@H]23` reads 10.2 µM.
Then `Cc1cc(C(=O)Nc2ccc3c(c2)C(=O)N(C)[C@@H]2CC[C@@H](CC(=O)NCc4ccc(-c5ccccc5)cc4)O[C@H]2CO3)no1`, with 8.06 µM.
For `C[C@H]1CN([C@@H](C)CO)C(=O)Cc2cc(NC(=O)C3CC3)ccc2O[C@H]1CN(C)S(=O)(=O)c1ccc(Cl)cc1`, the AC35 was 15.6 µM.
The result for `C[C@H]1CN([C@@H](C)CO)S(=O)(=O)c2ccc(C#Cc3ccncc3)cc2O[C@@H]1CN(C)S(=O)(=O)c1ccccc1` reads 16.5 µM.
Then `O=C(C[C@H]1C[C@H]2c3cc(NS(=O)(=O)c4ccc(F)cc4)ccc3O[C@H]2[C@H](CO)O1)NCc1ccc(Oc2ccccc2)cc1`, with 12.6 µM.
Consider `C[C@H](CO)N1C[C@H](C)[C@H](CN(C)Cc2ccc(C(=O)Nc3ccccc3N)cc2)Oc2c(cccc2N(C)C)C1=O`, for which the AC35 is 17.6 µM.
The result for `C=C1C(=O)OC2C1CCC(C)C1(O)C=CC(=O)C21C` (centres undefined) reads 6.43 µM; that for `Cc1noc(C)c1C(=O)Nc1sccc1C(N)=O`, 14.3 µM.
